Results taken from patent US7473682B2, “Angiogenic peptides and uses thereof” (Ramot at Tel Aviv University Ltd., priority 2003, dated 2009).

Experiments:
[1] = tested on: ECs (HUVECs); experiment: EC migration assay with peptide-presenting phages (Chemicon QCM 96-well Migration Assay); type: cell-based, human; conditions: 5 hours; for Migration of activated ECs (phages with ECs in migration chamber): 10^5 or 10^6 phages per well; for EC migration, phages as chemoattractants on feeder tray: 10^6 phages per well
Procedure: EC migration assay—EC migration was evaluated by the Chemicon QCM 96-well Migration Assay (Chemicon International, Temecula, Calif., USA) according to the manufacturer's instructions. Briefly, the kit's migration chamber comprises an insert membrane with 8 μm pores and a feeder tray containing the peptides as chemoattractants. Cell migration was evaluated by placing the cells in the migration chamber and following their migration to the bottom of the membrane.
For the migration/chemoattractant assay, ECs from passage 3 were incubated for 24 hours on gelatin-coated plates in the presence of the M199 SFM. Following trypsinization, 2×10^4 ECs were incubated for 5 hours in each of the 96 wells of the migration chamber. The peptide-presenting phages (10^5 or 10^6) were added to the feeder tray to chemoattractant the cells without being in physical contact with the cells. Cells which reached the bottom of the membrane (i.e., migratory cells) were dissociated from the membrane following the incubation with a cell detachment buffer. The migratory cells were subsequently lysed and detected by the molecular probe CyQuant GR dye which exerts green fluorescent enhancement when bound to cellular nucleic acid.
For activation migration assays, 10^5 or 10^6 peptide-presenting phages were incubated (for 5 hours) with ECs in the migration chamber. NO phages (unmodified M13 phages) served as negative control in both migration assays. Results were determined by a fluorescent ELISA reader at 480/520 nm (Fluostar BMG Lab Teck) and are presented in net values from which the control values were subtracted.

[2] = tested on: MVECs; experiment: MVEC migration assay with synthetic peptides; type: cell-based; conditions: 5 hours; for Increase in MVECs migration, peptides as chemoattractants: 10 ng/ml; for MVECs migration, direct activation by peptides: 1 ng/ml
Procedure: MVEC migration was evaluated as described above except that MVECs from passage 3 were incubated in EBM-MV SFM. […] The presence of migratory cells was detected using the fluorescent ELISA reader at 480/520 nm (Fluostar BMG Lab Teck) as described in Example 2, hereinabove. […]

[3] = tested on: VEGF-A; experiment: Real time PCR gene expression in MVECs, VEGF-A; type: cell-based; parameters: key: increased (+); non-increased (−); conditions: 1 ng/ml peptide
Procedure: (§1) Real Time PCR—MVECs from passage 3 were incubated for 24 hours in EBM-MV supplement-free medium (starving media). Following starvation, 1 ng/ml of synthetic peptides LT, QF, SP, TR, YR, and VL and 10 ng/ml of VEGF were added to the plates. Following 1.5 or 6 hours of incubation, total RNA was extracted using TRIsol reagent (Invitrogen Life Technologies, Carlsbad Calif., USA) and 0.8 μg of the extracted RNA was used as a template for reverse transcription (Invitrogen) using random primers (SuperScript III First-Strand Synthesis System for RT-PCR (hvitrogen, Carlsbad Calif., USA) according to the manufacturer's instructions. Resulting cDNAs were subjected to real time PCR amplification using the ABI prism 7000 Sequence Detection System (Applied Biosystems, Foster City, Calif., USA). Oligonucleotide primers were designed using Primer Express Software (Applied Biosystems, Foster City, Calif., USA) according the translated region of VEGF-A (Accession No:NM_003376), VEGF-C (Accession No:NM_005429), KDR (Accession No:NM_002253), FLT-1 (Accession No:NM_002019), HIF-α (Accession No:HSU22431), and GAPDH (Accession No:NM_002046) and are listed in Table 6, hereinbelow. Briefly, a reaction mixture of 20 μl consisting of DDW, oligonucleotide primers (500 nM), cDNA (3 μl), and SYBR Green PCR master kit (Applied Biosystems, Foster City, Calif., USA) was subjected to an amplification program of 15 seconds at 95° C., and 60 seconds at 60° C. for 40 cycles. Results were analyzed using the Sequence Detector Software Version 1 (Applied Biosystenis).
(§2) Peptides effect on gene expression in MVECs—The effect of the synthetic peptides on the expression in MVECs of selected genes (VEGF-A, VEGF-C, KDR, FLT-1 and HIF-1α) related to the VEGF pathway (a major pathway that participated in angiogenic process) was tested. Synthetic peptides were added at 1 ng/ml for 1.5 and 6 hours. After incubation with peptide, RNA was extracted from MVECs and Real Time PCR was performed. Gene expression was calculated as peptide/control (cells without peptide treatment) ratio.

[4] = tested on: FLT-1; experiment: Real time PCR gene expression in MVECs, FLT-1; type: cell-based; parameters: key: increased (+); non-increased (−); conditions: 1 ng/ml peptide
Procedure: as §1, §2

[5] = tested on: KDR; experiment: Real time PCR gene expression in MVECs, KDR; type: cell-based; parameters: key: increased (+); non-increased (−); conditions: 1 ng/ml peptide
Procedure: as §1, §2

[6] = tested on: HIF-1α; experiment: Real time PCR gene expression in MVECs, HIF-1α; type: cell-based; parameters: key: increased (+); non-increased (−); conditions: 1 ng/ml peptide
Procedure: as §1, §2

[7] = tested on: ears of nude mice and Balb/C mice; experiment: In vivo angiogenesis in a mouse-ear model; conditions: for Number of blood vessels in the ears of injected mice (photographs): 10 μg peptide, subcutaneous injection into ear; for Number of blood vessels: 10 μg/ear, 5 days after inoculation; for Peptide/PBS = ratio between the No. of blood vessels in the peptide-injected ear and in the PBS-injected ear: mouse ears, contralateral ear PBS
Procedure: In Wivo angiogenesis in a mouse-ear model—Ear angiogenesis studies were a modification of an approach described previously (Pettersson, 2000). […] Contralateral ears were injected only with PBS. […] Two days after peptide inoculation, angiogenic effect of peptides could be observed.
Histological sections—Histological sections of the mouse-ears injected with the angiogenic peptides were performed by fixing tissues in 4% buffered formalin. Sections were embedded in paraffin blocks sectioned in 4 μm thick layers and stained with hematoxolin-eosin.

[8] = tested on: mouse ischemic hind limb; experiment: Mouse ischemic hind limb model, physiological observations (ladder climbing); type: in vivo; parameters: key: 1 = walk and climb ... 4 = walk with difficulty, cannot climb; conditions: mean score of 10 mice, 10 μg; for Physiological score (ability to climb a ladder) Day 1: 1 = walk and climb ... 4 = walk with difficulties and cannot climb, day 1 post operation; for Physiological score (ability to climb a ladder) Day 4 / Physiological score (ability to climb a ladder) Day 7 / Physiological score (ability to climb a ladder) Day 10: scale 1-4; for Physiological score (ability to climb a ladder) Day 4: day 4 post operation; for Physiological score (ability to climb a ladder) Day 7: day 7 post operation; for Physiological score (ability to climb a ladder) Day 10: day 10 post operation
Procedure: (§3) Mouse ischemic hind limb model—Ischemia was created in the mouse left hind limb by ligation of the femoral artery. The right hind limb served as control. A day after the operation each of the peptides was injected into one site close to the ligation and one site distal to the ligation. Each mouse was treated with each of the peptides in a total amount of 10 μg.
Physiological observations—Ischemic mice were evaluated for their ability to climb a ladder on day 1, 4, 7, and 10-post operation. The scoring system was as follows: 1—walk and climb; 2—walk and climb with some difficulty, 3—walk and cannot climb the ladder; 4—walk with difficulties and cannot climb the ladder.

[9] = tested on: mouse ischemic hind limb; experiment: Mouse ischemic hind limb model, blood perfusion (Laser Doppler Imager); type: in vivo; conditions: 14 and 19 days following peptide injection; for The blood perfusion ratio (in percentages) of the ischemic vs. control limbs, Mean: 10 μg
Procedure: as §3
Blood perfusion in ischemic mice—The percent of blood perfusion was measured using a Laser Doppler Imager (PeriMed, Sweden) at 14 and 19 days after peptides injections. The average percent perfusion of each limb was computed and expressed as the ischemic (left)/control (right) blood perfusion ratio.

Sequence	Migration of activated ECs (phages with ECs in migration chamber) [1]	EC migration, phages as chemoattractants on feeder tray [1]	Increase in MVECs migration, peptides as chemoattractants [2]	VEGF-A Expression after 1.5 hours [3]	FLT-1 Expression after 1.5 hours [4]	KDR Expression after 1.5 hours [5]	HIF Expression after 1.5 hours [6]	HIF Expression after 6 hours [6]	Number of blood vessels in the ears of injected mice (photographs) [7]	Number of blood vessels [7]	Peptide/PBS = ratio between the No. of blood vessels in the peptide-injected ear and in the PBS-injected ear [7]	Physiological score (ability to climb a ladder) Day 1 [8]	Physiological score (ability to climb a ladder) Day 4 [8]	Physiological score (ability to climb a ladder) Day 7 [8]	Physiological score (ability to climb a ladder) Day 10 [8]	The blood perfusion ratio (in percentages) of the ischemic vs. control limbs, Mean [9]	MVECs migration, direct activation by peptides [2]	VEGF-A Expression after 6 hours [3]	KDR Expression after 6 hours [5]	also measured
LLADTTHHRPWT (Phage displayed peptide) [LT]	induced migration	induce migration as chemoattractants	3.5 fold	+	+	−	−	−	increased number of blood vessels	18	3	3.07	2.25	1.6	1.2	78.275 percentages				
QPWLEQAYYSTF (Phage displayed peptide) [QF]	induced migration	induce migration as chemoattractants	2.4 fold	+	+	+	+	−	increased number of blood vessels	21	0.9	2.83	2	1.6	1.2	112.222 percentages	2.3 folds	−		FLT-1 Expression after 6 hours ([4]; 6 hours): −; Percent of blood perfusion ratio, ischemic/control limb (significance) [9]: significant increase
SAHGTSTGVPWP (Phage displayed peptide)		induce migration as chemoattractants	2 fold	+	+	+			increased number of blood vessels	15	1	2.85	2.25	1.75	1.6	84.478 percentages	2.1 folds			
TLPWLEESYWRP (Phage displayed peptide) [TR]		induce migration as chemoattractants	2 fold	+	+		+	+		15	5.5	3.05	2.5	1.6	1.4	86.006 percentages	2.6 folds	−	+	Vascularization of mouse ear, histology sections ([7]; 10 μg, compared to control): large blood vessel formation and neovascularization
VPWMEPAYQRFL (Phage displayed peptide) [VL]			2 fold	+	+		+	+		14	5.6	2.75	2	1.6	1.4	95.560 percentages		+	+	
